Source: patent publication US12534493B2, “Bridged nucleoside and nucleotide” (Liid Pharmaceuticals, Inc., priority 2020, dated 2026)

Tests used:
Type in all cases: binding
[1] = test system: double-stranded hairpin DNA: 5′-d(GGCAGAAGAAAAAGAGACGC)-C18 spacer-d(GCGTCTCTTTTTCTTCTGCC)-3′ (SEQ ID NO: 23); test: Melting temperature (Tm) measurement, triple strand-forming ability, with double-stranded hairpin DNA; settings: triplex with double-stranded hairpin DNA; for Tm: footnote: 10 mM sodium phosphate buffer (pH 7.0), 200 mM NaCl, 5 mM MgCl2; for ΔTm/mod.: change per modification vs natural oligonucleotide
Method: […] The sample solution was cooled to 15° C., and the measurement was started. The temperature was raised to 90° C. at a rate of 0.5° C. per minute, and the absorbance at 260 nm was plotted at intervals of 0.5° C. All Tm values were calculated by the midline method and the average of three independent measurement results was taken.

[2] = test system: single-stranded DNA: 5′-d(ACGAGAACATCC)-3′ (SEQ ID NO: 12); test: Melting temperature (Tm) measurement, double strand-forming ability, with single-stranded DNA; settings: duplex with single-stranded DNA SEQ ID NO: 12; for Tm: 10 mM phosphate buffer (pH7.0), 200 mM NaCl, 2.5 μM each oligonucleotide; for ΔTm/mod.: change per modification vs natural oligonucleotide
Method: (§1) A sample solution ([…]) with final concentrations of 10 mM phosphate buffer (pH7.0), 200 mM sodium chloride, and 2.5 μM each oligonucleotide was immersed in boiling water and slowly cooled to room temperature. The sample solution was cooled to 20° C., and the measurement was started. The temperature was raised to 90° C. at a rate of 0.5° C. per minute, and the absorbance at 260 nm was plotted at intervals of 0.5° C. All Tm values were calculated by the midline method and the average of three independent measurement results was taken.
(§2) conditions: 10 mM sodium phosphate buffer (pH7.0) containing 200 mM NaCl, […] of each strand

[3] = test system: single-stranded RNA: 5′-r(ACGAGAACAUCC)-3′ (SEQ ID NO: 11); test: Melting temperature (Tm) measurement, double strand-forming ability, with single-stranded RNA; settings: duplex with single-stranded RNA SEQ ID NO: 11; for Tm: 10 mM phosphate buffer (pH7.0), 200 mM NaCl, 2.5 μM each oligonucleotide; for ΔTm/mod.: change per modification vs natural oligonucleotide
Method: as §1, §2

5′ -TCTTCTTTTTCTCT-3′: unmodified triplex-forming oligonucleotide; C shows 2′-deoxy-5-methylcytidine (DNA, all C 5-methyl, backbone not given here; triplex-forming oligonucleotide)
Tm [1]: 31 °C

5′ -TCTTCTTXTTCTCT-3′: modified oligonucleotide with one X modification; C shows 2′-deoxy-5-methylcytidine (DNA TCTTCTTTTTCTCT; X modified nucleotide; 5-methylcytidines; (2)..(2) 2′-Deoxy-5-methylcytidine; (5)..(5) 2′-Deoxy-5-methylcytidine; misc_difference (8)..(8) Me-TaNA; (11)..(11) 2′-Deoxy-5-methylcytidine; (13)..(13) 2′-Deoxy-5-methylcytidine)
ΔTm/mod. [1]: +5.0 °C | Tm [1]: 36 °C

5′ -TCTTCTTYTTCTCT-3′: modified oligonucleotide with one Y modification; C shows 2′-deoxy-5-methylcytidine (DNA TCTTCTTTTTCTCT; Y modified nucleotide; 5-methylcytidines; (2)..(2) 2′-Deoxy-5-methylcytidine; (5)..(5) 2′-Deoxy-5-methylcytidine; misc_difference (8)..(8) LNA; (11)..(11) 2′-Deoxy-5-methylcytidine; (13)..(13) 2′-Deoxy-5-methylcytidine)
ΔTm/mod. [1]: +6.0 °C | Tm [1]: 37 °C

5′ -TCTTCTTZTTCTCT-3′: modified oligonucleotide with one Z modification; C shows 2′-deoxy-5-methylcytidine (DNA TCTTCTTTTTCTCT; Z modified nucleotide; 5-methylcytidines; (2)..(2) 2′-Deoxy-5-methylcytidine; (5)..(5) 2′-Deoxy-5-methylcytidine; misc_difference (8)..(8) ENA; (11)..(11) 2′-Deoxy-5-methylcytidine; (13)..(13) 2′-Deoxy-5-methylcytidine)
ΔTm/mod. [1]: +5.0 °C | Tm [1]: 36 °C

5′ -TCTTCTXXXTCTCT-3′: modified oligonucleotide with three consecutive X modifications (DNA TCTTCTTTTTCTCT; three X modified nucleotides; (2)..(2) 2′-Deoxy-5-methylcytidine; (5)..(5) 2′-Deoxy-5-methylcytidine; misc_difference (7)..(7) Me-TaNA; misc_difference (8)..(8) Me-TaNA; misc_difference (9)..(9) Me-TaNA; (11)..(11) 2′-Deoxy-5-methylcytidine; (13)..(13) 2′-Deoxy-5-methylcytidine)
ΔTm/mod. [1]: +6.3 °C | Tm [1]: 50 °C

5′ -TCTTCTYYYTCTCT-3′: modified oligonucleotide with three consecutive Y modifications (DNA TCTTCTTTTTCTCT; three Y modified nucleotides; (2)..(2) 2′-Deoxy-5-methylcytidine; (5)..(5) 2′-Deoxy-5-methylcytidine; misc_difference (7)..(7) LNA; misc_difference (8)..(8) LNA; misc_difference (9)..(9) LNA; (11)..(11) 2′-Deoxy-5-methylcytidine; (13)..(13) 2′-Deoxy-5-methylcytidine)
ΔTm/mod. [1]: +5.0 °C | Tm [1]: 46 °C

5′ -TCTTCTZZZTCTCT-3′: modified oligonucleotide with three consecutive Z modifications (DNA TCTTCTTTTTCTCT; three Z modified nucleotides; (2)..(2) 2′-Deoxy-5-methylcytidine; (5)..(5) 2′-Deoxy-5-methylcytidine; misc_difference (7)..(7) ENA; misc_difference (8)..(8) ENA; misc_difference (9)..(9) ENA; (11)..(11) 2′-Deoxy-5-methylcytidine; (13)..(13) 2′-Deoxy-5-methylcytidine)
ΔTm/mod. [1]: +5.7 °C | Tm [1]: 48 °C

5′ -TCTTCXTXTXCTCT-3′: modified oligonucleotide with three separated X modifications (DNA TCTTCTTTTTCTCT; three X modified nucleotides; (2)..(2) 2′-Deoxy-5-methylcytidine; (5)..(5) 2′-Deoxy-5-methylcytidine; misc_difference (6)..(6) Me-TaNA; misc_difference (8)..(8) Me-TaNA; misc_difference (10)..(10) Me-TaNA; (11)..(11) 2′-Deoxy-5-methylcytidine; (13)..(13) 2′-Deoxy-5-methylcytidine)
ΔTm/mod. [1]: +7.3 °C | Tm [1]: 53 °C

5′-GGATGXXCTCGT-3′: modified oligonucleotide with two consecutive X modifications (DNA GGATGTTCTCGT; DNA oligonucleotide with modified nucleotide X, X not given here, further chemistry not given here)
Tm [2]: 58 °C | ΔTm/mod. [2]: +3.5 °C | Tm [3]: 66 °C | ΔTm/mod. [3]: +7.0 °C

5′-GGATGYYCTCGT-3′: modified oligonucleotide with two consecutive Y modifications (DNA GGATGTTCTCGT; two Y modified nucleotides; misc_difference (6)..(6) LNA; misc_difference (7)..(7) LNA)
Tm [2]: 57 °C | ΔTm/mod. [2]: +3.0 °C | Tm [3]: 64 °C | ΔTm/mod. [3]: +6.0 °C

5′-GGATGZZCTCGT-3′: modified oligonucleotide with two consecutive Z modifications (DNA GGATGTTCTCGT; two Z modified nucleotides; misc_difference (6)..(6) ENA; misc_difference (7)..(7) ENA)
Tm [2]: 57 °C | ΔTm/mod. [2]: +3.0 °C | Tm [3]: 64 °C | ΔTm/mod. [3]: +6.0 °C

5′-GGAXGXTCTCGT-3′: modified oligonucleotide with two separated X modifications (DNA GGATGTTCTCGT; DNA oligonucleotide with modified nucleotide X, X not given here, further chemistry not given here)
Tm [2]: 58 °C | ΔTm/mod. [2]: +3.5 °C | Tm [3]: 66 °C | ΔTm/mod. [3]: +7.0 °C

5′-GGAYGYTCTCGT-3′: modified oligonucleotide with two separated Y modifications (DNA GGATGTTCTCGT; two Y modified nucleotides; misc_difference (4)..(4) LNA; misc_difference (6)..(6) LNA)
Tm [2]: 58 °C | ΔTm/mod. [2]: +3.5 °C | Tm [3]: 65 °C | ΔTm/mod. [3]: +6.5 °C

5′-GGAZGZTCTCGT-3′: modified oligonucleotide with two separated Z modifications (DNA GGATGTTCTCGT; two Z modified nucleotides; misc_difference (4)..(4) ENA; misc_difference (6)..(6) ENA)
Tm [2]: 57 °C | ΔTm/mod. [2]: +3.0 °C | Tm [3]: 65 °C | ΔTm/mod. [3]: +6.5 °C
